Data on two molecules can be found in patent publication US20230270826A1, “ANTIVIRAL USE OF L[…] GEFITINIB” (priority 2020, published 2023).

The subject of one test is interleukin 6 (IL-6). Kind of test: Cytokine release assay (IL-6) in PBMC stimulated with SARS-CoV2 proteins. The class given is cell-based, human.
In test [1] the test system is genes from the COVID-19 model. Kind of test: Transcription fingerprinting by 3' RNA-sequencing of nucleocapsid-stimulated cells. The class given is cell-based, human.
Where [2] appears, read: compound effect vs nucleocapsid stimulation.

As to `COc1cc2ncnc(Nc3ccc(F)c(Cl)c3)c2cc1OCCCN1CCOCC1` [gefitinib], in the test with interleukin 6 (IL-6) (nucleocapsid (N) stimulation vs Mock, FIG. 1), the “Immune modulation of interleukin 6 (IL-6) release” value is given as “stronger than by dexamethasone (DEX) alone”. For the same molecule, the “Expression of genes up- or down-regulated 2-fold by nucleocapsid (N) vs Mock” value in test [1] (N+compound vs N, FIG. 4) is on record as ““normalized” in their expression”. In test [1] (N-compound vs N, 4 h, FIG. 4 boxplots), the “Regulation of genes up-regulated at time 4 h N vs Mock” value is “strongly down-regulated”. For the same molecule, in test [1] (setting [2]), the “Regulation of genes downregulated in nucleocapsid (N) stimulation vs Mock” value is “upregulated” and the “Regulation of genes upregulated in nucleocapsid (N) stimulation vs Mock” value was “downregulated”.

On to `Nc1cccc2c1C(=O)N(C1CCC(=O)NC1=O)C2=O` (stereo not drawn) [pomalidomide], for which the “Immune modulation of interleukin 6 (IL-6) release” value in the test with interleukin 6 (IL-6) (spike (S) or spike trimer (St) stimulation vs Mock, GEF 0.5 μM and 5 μM, POM 100 ng/ml, FIG. 3) is “does not show immune modulation”.
